Experiments:
[1] = test system: histone H2A.Z Lysine 7 acetylation (TIP60 mediated) in U2OS cells; experiment: H2A.Z Lysine 7 Acetylation Biomarker Assay (384-well, U2OS); assay type: cell-based; details: Homo sapiens, serum free medium, 24 hours incubation
Description: Compounds may be tested for their ability to inhibit the histone H2A.Z Lysine 7 acetylation marker (which is TIP60 mediated) in the following assay:
The cell line U2OS was seeded at a density of 3,000 cells per well in 384-well optical quality tissue culture plates in RPMI medium supplemented with 10% foetal bovine serum and 10 mM Hepes. The cells were allowed to adhere for 24 hours under standard culture conditions (37 degree Celsius, 5% CO2). At the end of this period the cells were washed with serum free medium. […] After incubation for 24 hours, the cells were fixed with 4% formaldehyde in PBS for 15 minutes at room temperature, washed with phosphate buffer saline and blocked with blocking buffer containing 0.2% TritonX100 and 2% BSA. Anti-H2A.ZK7ac specific antibody (Abcam) in blocking buffer was added and incubated overnight at 4 degree Celsius. After washing, a secondary antibody labelled with AlexaFluor 488 dye (ThermoFisher) and Hoechst 33342 (1 μg/mL, Life Technologies) were added for 2 hours incubation at room temperature. Plates were washed and read on a PerkinElmer Opera HCS high content imaging platform. Using a Columbus image analysis pipeline, individual nuclei were located by Hoechst 33342 stain and the acetylation level was calculated from the AlexaFluor 488-related intensity in the same area. The resulting mean intensity per cell was converted to percent inhibition relative to controls on the same plate and the data fitted against a four-parameter logistic model to determine the 50% inhibitory concentration (IC50).

MOZ-KAT6A = target: T1, MOZ-KAT6A (Homo sapiens, UniProt Q92794, A567V); experiment: Revised Acetyltransferase Biochemical Assay, KAT6A; details: Table 8 (MOZ-KAT6A), 1 μM Acetyl coenzyme A
T1 construct: encoding amino acid residues 507 to 778 (Uniprot Q92794-1) of human KAT6A; made in house; host or cells: E. coli BL21 DE3
T1 sequence (Q92794 507-778 A567V limits assumed): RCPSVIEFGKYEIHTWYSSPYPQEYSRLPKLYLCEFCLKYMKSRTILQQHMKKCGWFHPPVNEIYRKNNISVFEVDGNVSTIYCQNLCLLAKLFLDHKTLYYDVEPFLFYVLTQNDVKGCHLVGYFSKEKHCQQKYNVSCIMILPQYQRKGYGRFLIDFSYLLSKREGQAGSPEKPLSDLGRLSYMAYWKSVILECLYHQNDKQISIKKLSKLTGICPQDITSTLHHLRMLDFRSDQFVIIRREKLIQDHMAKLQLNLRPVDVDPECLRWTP

MOF-KAT8 [2] = target: T2, MOF-KAT8 (Homo sapiens, UniProt Q9H7Z6); experiment: Revised Acetyltransferase Biochemical Assay, KAT8
T2 sequence (Q9H7Z6 177-447): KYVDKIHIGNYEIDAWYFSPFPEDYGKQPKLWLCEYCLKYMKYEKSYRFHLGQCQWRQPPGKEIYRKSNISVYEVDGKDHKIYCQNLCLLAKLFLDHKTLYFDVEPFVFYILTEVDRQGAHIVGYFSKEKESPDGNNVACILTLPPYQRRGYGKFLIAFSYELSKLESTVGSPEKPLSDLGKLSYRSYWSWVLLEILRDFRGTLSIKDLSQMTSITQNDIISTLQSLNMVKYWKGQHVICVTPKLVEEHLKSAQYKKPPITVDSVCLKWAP

HBO-KAT7 [3] = target: T3, HBO-KAT7 (Homo sapiens, UniProt O95251); experiment: Revised Acetyltransferase Biochemical Assay, KAT7; details: Table 9 (HBO-KAT7), 1 μM Acetyl coenzyme A
T3 construct: encoding amino acid residues 325 to 611 (Uniprot 095251-1) of human KAT7; made in house; host or cells: E. coli BL21 DE3 RIL
T3 sequence (O95251 with tags, fused parts or gaps): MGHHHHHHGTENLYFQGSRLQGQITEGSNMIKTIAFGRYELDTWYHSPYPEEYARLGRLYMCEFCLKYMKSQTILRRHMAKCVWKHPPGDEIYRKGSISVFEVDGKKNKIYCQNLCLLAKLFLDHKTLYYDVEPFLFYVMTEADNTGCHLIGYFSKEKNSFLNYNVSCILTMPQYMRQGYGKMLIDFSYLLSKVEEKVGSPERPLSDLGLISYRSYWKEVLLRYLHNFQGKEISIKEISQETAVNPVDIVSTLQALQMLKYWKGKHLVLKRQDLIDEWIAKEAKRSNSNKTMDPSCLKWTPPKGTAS

MOF-KAT8 [4] = target: T2, MOF-KAT8; experiment: Acetyltransferase biochemical assay (AlphaScreen), KAT8; details: Table 4 (MOF-KAT8); 0.4 μM Acetyl coenzyme A, histone H4, 20 nM enzyme
TIP60-KAT5 = target: T4, TIP60-KAT5 (Homo sapiens, UniProt Q92993); experiment: Revised Acetyltransferase Biochemical Assay, KAT5; details: 10 nM KAT5, 1 μM AcCoA, 100 nM histone H4, 90 min
T4 construct: encoding amino acid residues 2 to 461 (Uniprot Q92993-2) of human KAT5 isoform; made in house; host or cells: E. coli BL21 DE3
T4 sequence (Q92993 2-461 isoform Q92993-2): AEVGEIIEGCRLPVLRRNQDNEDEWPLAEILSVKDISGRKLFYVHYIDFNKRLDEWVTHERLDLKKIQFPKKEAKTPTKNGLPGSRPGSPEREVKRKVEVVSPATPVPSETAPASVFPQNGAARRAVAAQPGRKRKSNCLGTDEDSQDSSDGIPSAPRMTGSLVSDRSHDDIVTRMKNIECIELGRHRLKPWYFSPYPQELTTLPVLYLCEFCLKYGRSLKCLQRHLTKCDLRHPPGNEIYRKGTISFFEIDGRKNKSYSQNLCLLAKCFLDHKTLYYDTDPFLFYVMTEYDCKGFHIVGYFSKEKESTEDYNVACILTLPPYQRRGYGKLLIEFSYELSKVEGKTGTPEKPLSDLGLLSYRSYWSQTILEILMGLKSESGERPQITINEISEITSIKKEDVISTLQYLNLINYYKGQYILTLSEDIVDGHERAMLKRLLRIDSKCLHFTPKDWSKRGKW

[5] = test system: histone H3 Lysine 14 acetylation (HBO1 mediated) in U2OS cells; experiment: Histone H3 Lysine 14 Acetylation Biomarker Assay (384-well, U2OS); assay type: cell-based; details: Homo sapiens, serum free medium, 24 hours incubation
Description: Compounds may be tested for their ability to inhibit acetylation of the histone H3 Lysine 14 (which is HBO1 mediated) marker in the following assay:
The cell line U2OS was seeded at a density of 3,000 cells per well in 384-well optical quality tissue culture plates in RPMI medium supplemented with 10% foetal bovine serum and 10 mM Hepes. The cells were allowed to adhere for 24 hours under standard culture conditions (37 degree Celsius, 5% CO2). At the end of this period the cells were washed with serum free medium. Compound dilutions prepared in DMSO were added to the serum free medium, with negative control wells reserved for treatment with DMSO only and 100% inhibition positive controls receiving a potent inhibitor compound (e.g. (Z)-4-fluoro-N-((3-hydroxyphenyl)sulfonyl)-5-methyl-[1,1′-biphenyl]-3-carbohydrazonic acid) at 10 μM concentration. After incubation for 24 hours, the cells were fixed with 4% formaldehyde in PBS for 15 minutes at room temperature, washed with phosphate buffer saline and blocked with blocking buffer containing 0.2% TritonX100 and 2% BSA. Anti-H3K14ac specific antibody (Cell Signalling Technologies) in blocking buffer was added and incubated overnight at 4 degree Celsius. After washing, a secondary antibody labelled with AlexaFluor 488 dye (ThermoFisher) and Hoechst 33342 (1 μg/mL, Life Technologies) were added for 2 hours incubation at room temperature. Plates were washed and read on a
PerkinElmer Opera HCS high content imaging platform. Using a Columbus image analysis pipeline, individual nuclei were located by Hoechst 33342 stain and the acetylation level was calculated from the AlexaFluor 488-related intensity in the same area. The resulting mean intensity per cell was converted to percent inhibition relative to controls on the same plate and the data fitted against a four-parameter logistic model to determine the 50% inhibitory concentration (IC50).

HBO-KAT7 [6] = target: T3, HBO-KAT7; experiment: Acetyltransferase biochemical assay (AlphaScreen), KAT7; details: Table 3 (HBO-KAT7); 0.4 μM Acetyl coenzyme A, histone H3.1, 40 nM enzyme

Row | SMILES | IC50 [1] [nM] | IC50 (MOZ-KAT6A) [nM] | IC50 (MOF-KAT8 [2]) [nM] | IC50 (HBO-KAT7 [3]) [nM] | IC50 (MOF-KAT8 [4]) [nM] | IC50 (TIP60-KAT5) [nM] | IC50 [5] [nM] | IC50 (HBO-KAT7 [6]) [nM]
1 | O=C(NCC(c1cccc(Cl)c1)c1ncco1)C1=Nc2ccc(Cl)cc2S(=O)(=O)N1 (stereo not shown) [Example 162] | 10900 | 29 | 34500 | 512 | 4200 | 1540 | 6520 | –
2 | O=C(NCC(c1ccc(F)cc1)c1ncco1)C1=Nc2ccc(I)cc2S(=O)(=O)N1 (stereo not shown) [Example 164] | 2820 | 17 | 34400 | 242 | 29600 | 781 | 2080 | –
3 | Cc1ccc(C(CNC(=O)C2=Nc3ccc(I)cc3S(=O)(=O)N2)c2ncco2)cc1 (stereo not shown) [Example 169] | 9880 | 23 | 43700 | 386 | 5140 | 412 | 1300 | –
4 | COCc1nnc(C(CNC(=O)C2=Nc3ccc(I)cc3S(=O)(=O)N2)c2ccccc2)o1 (stereo not shown) [Example 171] | > 40000 | 24 | > 125000 | 785 | 41700 | 1160 | 10400 | –
5 | COc1cccc(C(CNC(=O)C2=Nc3ccc(Cl)cc3S(=O)(=O)N2)c2ncco2)c1 (stereo not shown) [Example 176, 7-chloro-N-(2-(3-methoxyphenyl)-2-(oxazol-2-yl)ethyl)-2H-benzo[e][1,2,4]thiadiazine-3-carboxamide 1,1-dioxide] | 15400 | 76 | 30200 | 869 | 92900 | 5110 | 4430 | 207
6 | COc1cccc(C(CNC(=O)C2=Nc3ccc(I)cc3S(=O)(=O)N2)c2ncco2)c1 (stereo not shown) [Example 187, 7-iodo-N-(2-(3-methoxyphenyl)-2-(oxazol-2-yl)ethyl)-2H-benzo[e][1,2,4]thiadiazine-3-carboxamide 1,1-dioxide] | 5460 | 15 | 14100 | 115 | 22800 | 242 | 491 | –
7 | O=C(NCC(c1cccc(O)c1)c1ncco1)C1=Nc2ccc(Br)cc2S(=O)(=O)N1 (stereo not shown) [Example 214, 7-Bromo-N-(2-(3-hydroxyphenyl)-2-(oxazol-2-yl)ethyl)-2H-benzo[e][1,2,4]thiadiazine-3-carboxamide 1,1-dioxide] | 8780 | 9 | 20100 | 50 | 7060 | 70 | 3600 | –
8 | O=C(NCC(c1cccc(OCC2CC2)c1)c1ncco1)C1=Nc2ccc(I)cc2S(=O)(=O)N1 (stereo not shown) [Example 217, N-(2-(3-(Cyclopropylmethoxy)phenyl)-2-(oxazol-2-yl)ethyl)-7-iodo-2H-benzo[e][1,2,4]thiadiazine-3-carboxamide 1,1-dioxide] | 32100 | 265 | – | 1190 | 22500 | 1460 | 1290 | 1740
9 | O=C(NCC(CO)c1ccccc1)C1=Nc2ccc(Cl)cc2S(=O)(=O)N1 (stereo not shown) [Example 225, 7-Chloro-N-(3-hydroxy-2-phenylpropyl)-2H-benzo[e][1,2,4]thiadiazine-3-carboxamide 1,1-dioxide] | > 40000 | 447 | > 125000 | 1460 | – | 5120 | > 40000 | –
10 | COCC(CNC(=O)C1=Nc2ccc(Cl)cc2S(=O)(=O)N1)c1ccccc1 (stereo not shown) [Example 226, 7-Chloro-N-(3-methoxy-2-phenylpropyl)-2H-benzo[e][1,2,4]thiadiazine-3-carboxamide 1,1-dioxide] | > 40000 | 75 | > 125000 | 1930 | – | 3730 | 24400 | –

Second part, the molecule after the results:

Row | IC50 [1] [nM] | IC50 (MOZ-KAT6A) [nM] | IC50 (MOF-KAT8 [2]) [nM] | IC50 (HBO-KAT7 [3]) [nM] | IC50 (MOF-KAT8 [4]) [nM] | IC50 (TIP60-KAT5) [nM] | IC50 [5] [nM] | IC50 (HBO-KAT7 [6]) [nM] | SMILES
11 | > 40000 | 75 | 28700 | 214 | 7960 | 2850 | > 20000 | – | Nc1nnc(C(CNC(=O)C2=Nc3ccc(I)cc3S(=O)(=O)N2)c2ccccc2)o1 (stereo not shown) [Example 189]
12 | 31100 | 8 | 68400 | 414 | 48900 | 303 | 4950 | – | O=C(NCCc1ccccc1-n1ncc(CO)n1)C1=Nc2ccc(I)cc2S(=O)(=O)N1 [Example 190, N-(2-(4-(hydroxymethyl)-2H-1,2,3-triazol-2-yl)phenethyl)-7-iodo-2H-benzo[e][1,2,4]thiadiazine-3-carboxamide 1,1-dioxide]
13 | 5710 | 7 | 9660 | 92 | 6520 | 111 | 3250 | – | O=C(NCC(c1ncco1)c1ccccc1O)C1=Nc2ccc(I)cc2S(=O)(=O)N1 (stereo not shown) [Example 228, N-(2-(2-Hydroxyphenyl)-2-(oxazol-2-yl)ethyl)-7-iodo-2H-benzo[e][1,2,4]thiadiazine-3-carboxamide 1,1-dioxide]
14 | 3410 | 10 | 15300 | 121 | 6350 | 163 | 498 | – | Cc1ccccc1C(CNC(=O)C1=Nc2ccc(I)cc2S(=O)(=O)N1)c1ncco1 (stereo not shown) [Example 237, 7-iodo-N-(2-(oxazol-2-yl)-2-(o-tolyl)ethyl)-2H-benzo[e][1,2,4]thiadiazine-3-carboxamide 1,1-dioxide]
15 | – | 17 | 75600 | 686 | > 125000 | 597 | 19200 | – | COCc1cnn(-c2ccccc2CCNC(=O)C2=Nc3ccc(I)cc3S(=O)(=O)N2)n1 [Example 239, 7-iodo-N-(2-(4-(methoxymethyl)-2H-1,2,3-triazol-2-yl)phenethyl)-2H-benzo[e][1,2,4]thiadiazine-3-carboxamide 1,1-dioxide]
16 | 11200 | 21 | 62600 | 134 | – | 309 | 3320 | – | O=C(NCCc1ccccc1-n1cccn1)C1=Nc2ccc(I)cc2S(=O)(=O)N1 [Example 240, N-(2-(1H-pyrazol-1-yl)phenethyl)-7-iodo-2H-benzo[e][1,2,4]thiadiazine-3-carboxamide 1,1-dioxide]
